Results published in ChEMBL document CHEMBL1909046, “DrugMatrix in vitro pharmacology data”.

How the values were obtained:
[1] = DRUGMATRIX: Glutamate, NMDA, Phencyclidine radioligand binding (ligand: [3H] TCP); type: cell membranes, Rattus norvegicus, Wistar, Cerebral cortex, Membrane; conditions: Not Active = under 50% inhibition at 10 µM
[2] = molecular target: Prostaglandin G/H synthase 1 (Homo sapiens, UniProt P23219); experiment: biochemical; type: tissue-based, Platelet; conditions: platelet;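 further: inhibition of COX-1 enzyme activity, with arachidonic acid supplied as substrate; in other assays of this panel Not Active means under 50% inhibition at 10 µM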
Prostaglandin G/H synthase 1, sequence (P23219 whole entry): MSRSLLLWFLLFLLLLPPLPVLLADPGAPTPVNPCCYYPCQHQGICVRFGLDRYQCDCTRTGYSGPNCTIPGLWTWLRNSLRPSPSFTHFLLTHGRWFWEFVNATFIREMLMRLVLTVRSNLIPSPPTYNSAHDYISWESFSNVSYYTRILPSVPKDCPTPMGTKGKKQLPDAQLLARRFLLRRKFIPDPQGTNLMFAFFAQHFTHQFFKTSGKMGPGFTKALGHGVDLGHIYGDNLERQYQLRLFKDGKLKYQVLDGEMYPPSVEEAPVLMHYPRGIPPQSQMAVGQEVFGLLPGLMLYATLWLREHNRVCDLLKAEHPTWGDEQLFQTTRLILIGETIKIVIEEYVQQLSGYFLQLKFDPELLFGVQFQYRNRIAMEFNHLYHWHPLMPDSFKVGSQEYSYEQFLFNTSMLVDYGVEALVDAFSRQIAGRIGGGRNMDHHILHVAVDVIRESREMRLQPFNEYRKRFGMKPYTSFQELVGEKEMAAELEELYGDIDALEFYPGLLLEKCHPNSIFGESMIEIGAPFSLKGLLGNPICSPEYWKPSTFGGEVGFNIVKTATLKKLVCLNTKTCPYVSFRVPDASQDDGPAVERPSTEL

[3] = molecular target: T1, Calcitonin receptor (Homo sapiens, UniProt P30988); type: cell membranes, Membrane; conditions: t47d; further: in other assays of this panel Not Active means under 50% inhibition at 10 µM
T1 sequence (P30988 whole entry): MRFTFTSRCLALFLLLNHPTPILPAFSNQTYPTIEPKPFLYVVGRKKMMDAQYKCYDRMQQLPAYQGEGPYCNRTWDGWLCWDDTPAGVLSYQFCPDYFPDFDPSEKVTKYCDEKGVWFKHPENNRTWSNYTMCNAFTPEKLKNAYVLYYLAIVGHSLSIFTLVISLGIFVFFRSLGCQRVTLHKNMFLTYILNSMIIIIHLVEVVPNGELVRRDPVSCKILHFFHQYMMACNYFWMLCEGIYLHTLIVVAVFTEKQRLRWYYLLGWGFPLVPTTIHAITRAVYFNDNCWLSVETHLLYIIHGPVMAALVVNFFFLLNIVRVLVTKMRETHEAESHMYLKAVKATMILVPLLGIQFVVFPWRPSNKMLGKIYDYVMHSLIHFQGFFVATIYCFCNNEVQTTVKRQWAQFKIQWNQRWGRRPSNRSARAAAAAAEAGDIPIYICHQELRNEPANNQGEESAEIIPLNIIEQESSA

[4] = DRUGMATRIX: GABAA, Flunitrazepam, Central radioligand binding (ligand: [3H] Flunitrazepam); type: cell membranes, Rattus norvegicus, Wistar, Brain, Membrane; conditions: Not Active = under 50% inhibition at 10 µM
[5] = molecular target: T2, Adenosine receptor A1 (Homo sapiens, UniProt P30542); type: cell membranes, CHO, Membrane;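 further: radioligand binding assay at the adenosine A1 receptor, with DPCPX serving as the labelled ligand; in other assays of this panel Not Active means under 50% inhibition at 10 µM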
T2 sequence (P30542 whole entry): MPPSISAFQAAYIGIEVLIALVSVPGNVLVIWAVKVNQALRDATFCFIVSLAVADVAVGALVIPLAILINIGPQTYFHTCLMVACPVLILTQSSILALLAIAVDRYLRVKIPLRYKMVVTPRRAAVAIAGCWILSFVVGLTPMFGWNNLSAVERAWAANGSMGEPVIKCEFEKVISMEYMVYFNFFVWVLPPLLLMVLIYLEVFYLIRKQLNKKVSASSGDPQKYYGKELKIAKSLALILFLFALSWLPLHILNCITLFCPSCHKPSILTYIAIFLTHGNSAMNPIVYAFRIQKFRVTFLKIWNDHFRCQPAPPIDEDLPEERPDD

[6] = molecular target: T3, Endothelin-1 receptor (Homo sapiens, UniProt P25101); type: cell membranes, Membrane; conditions: cho-k1; further: in other assays of this panel Not Active means under 50% inhibition at 10 µM
T3 sequence (P25101 whole entry): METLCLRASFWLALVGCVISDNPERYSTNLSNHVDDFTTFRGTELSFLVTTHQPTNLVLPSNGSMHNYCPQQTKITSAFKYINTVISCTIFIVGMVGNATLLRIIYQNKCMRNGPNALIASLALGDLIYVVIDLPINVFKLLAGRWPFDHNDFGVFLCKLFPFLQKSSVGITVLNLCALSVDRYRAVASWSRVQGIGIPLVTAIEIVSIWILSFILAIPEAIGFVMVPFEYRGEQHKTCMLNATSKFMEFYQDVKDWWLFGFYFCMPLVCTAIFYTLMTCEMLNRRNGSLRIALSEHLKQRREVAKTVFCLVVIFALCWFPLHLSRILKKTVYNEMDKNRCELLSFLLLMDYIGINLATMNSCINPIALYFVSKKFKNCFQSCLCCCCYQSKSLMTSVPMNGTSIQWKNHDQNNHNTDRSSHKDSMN

CC(C)(C(=O)O)c1ccc(C(O)CCCN2CCC(C(O)(c3ccccc3)c3ccccc3)CC2)cc1 (centres undefined) [FEXOFENADINE]
Not Active: IC50 [1] | Ki [1] | IC50 [2] | IC50 [3] | IC50 [4] | Ki [4] | IC50 ([5]; cho) | IC50 [6]

CN1CCN(c2c(F)cc3c(=O)c(C(=O)O)cn(CCF)c3c2F)CC1 [FLEROXACIN]
Not Active: IC50 [1] | Ki [1] | IC50 [2] | IC50 [3] | IC50 [4] | Ki [4] | IC50 ([5]; cho) | IC50 [6]

O=c1[nH]c(=O)n([C@H]2C[C@H](O)[C@@H](CO)O2)cc1F [FLOXURIDINE]
Not Active: IC50 [1] | Ki [1] | IC50 [2] | IC50 [3] | IC50 [4] | Ki [4] | IC50 ([5]; cho) | IC50 [6]

COC(=O)Nc1nc2cc(C(=O)c3ccc(F)cc3)ccc2[nH]1 [FLUBENDAZOLE]
Not Active: IC50 [1] | Ki [1] | IC50 [2] | IC50 [3] | IC50 [4] | Ki [4] | IC50 ([5]; cho) | IC50 [6]

CC(=O)OCC(=O)[C@@]1(O)CC[C@H]2[C@@H]3CCC4=CC(=O)CC[C@]4(C)[C@@]3(F)[C@@H](O)C[C@@]21C [FLUDROCORTISONE ACETATE]
Not Active: IC50 [1] | Ki [1] | IC50 [2] | IC50 [3] | IC50 [4] | Ki [4] | IC50 ([5]; cho) | IC50 [6]

CCOC(=O)c1ncn2c1CN(C)C(=O)c1cc(F)ccc1-2 [FLUMAZENIL]
Not Active: IC50 [1] | Ki [1] | IC50 [2] | IC50 [3] | IC50 ([5]; cho) | IC50 [6]
0.00315 µM: Ki ([4]; read-out: Ki)
0.00387 µM: IC50 ([4]; read-out: IC50)

CC(=O)OCC(=O)[C@@]12OC(C)(C)O[C@@H]1C[C@H]1[C@@H]3C[C@H](F)C4=CC(=O)C=C[C@]4(C)[C@@]3(F)[C@@H](O)C[C@@]12C [FLUOCINONIDE]
Not Active: IC50 [1] | Ki [1] | IC50 [2] | IC50 [3] | IC50 [4] | Ki [4] | IC50 ([5]; cho) | IC50 [6]

O=C(O)P(=O)(O)O [FOSCARNET]
Not Active: IC50 [1] | Ki [1] | IC50 [2] | IC50 [3] | IC50 [4] | Ki [4] | IC50 ([5]; cho) | IC50 [6]

Cc1ccc(C)c(OCCCC(C)(C)C(=O)O)c1 [GEMFIBROZIL]
Not Active: IC50 [1] | Ki [1] | IC50 [2] | IC50 [3] | IC50 [4] | Ki [4] | IC50 ([5]; cho) | IC50 [6]

O=c1c(-c2ccc(O)cc2)coc2cc(O)cc(O)c12 [GENISTEIN]
11.6 µM: Ki ([5]; read-out: Ki)
Not Active: IC50 [1] | Ki [1] | IC50 [2] | IC50 [3] | IC50 [4] | Ki [4] | IC50 [6]
19.9 µM: IC50 ([5]; read-out: IC50)

CCC1=C(C)CN(C(=O)NCCc2ccc(S(=O)(=O)NC(=O)N[C@H]3CC[C@H](C)CC3)cc2)C1=O [GLIMEPIRIDE]
Not Active: IC50 [1] | Ki [1] | IC50 [2] | IC50 [3] | IC50 [4] | Ki [4] | IC50 ([5]; cho) | IC50 [6]

Nc1cc(-c2ccncc2)c[nH]c1=O [INAMRINONE]
Not Active: IC50 [1] | Ki [1] | IC50 [2] | IC50 [3] | IC50 [4] | Ki [4] | IC50 ([5]; cho) | IC50 [6]

CCCCC1=NC2(CCCC2)C(=O)N1Cc1ccc(-c2ccccc2-c2nnn[nH]2)cc1 [IRBESARTAN]
Not Active: IC50 [1] | Ki [1] | IC50 [2] | IC50 [3] | IC50 [4] | Ki [4] | IC50 ([5]; cho) | IC50 [6]

CN1CCC(=C2c3ccccc3CC(=O)c3sccc32)CC1 [KETOTIFEN]
Not Active: IC50 [1] | Ki [1] | IC50 [2] | IC50 [3] | IC50 [4] | Ki [4] | IC50 ([5]; cho) | IC50 [6]

N[C@@H](Cn1ccc(=O)c(O)c1)C(=O)O [L-MIMOSINE]
Not Active: IC50 [1] | Ki [1] | IC50 [2] | IC50 [3] | IC50 [4] | Ki [4] | IC50 ([5]; cho) | IC50 [6]

C[N+](C)(C)C[C@H](O)CC(=O)[O-] [LEVOCARNITINE]
Not Active: IC50 [1] | Ki [1] | IC50 [2] | IC50 [3] | IC50 [4] | Ki [4] | IC50 ([5]; cho) | IC50 [6]

C[C@H]1COc2c(N3CCN(C)CC3)c(F)cc3c(=O)c(C(=O)O)cn1c23.C[C@H]1COc2c(N3CCN(C)CC3)c(F)cc3c(=O)c(C(=O)O)cn1c23.O [LEVOFLOXACIN]
Not Active: IC50 [1] | Ki [1] | IC50 [2] | IC50 [3] | IC50 [4] | Ki [4] | IC50 ([5]; cho) | IC50 [6]

CCn1cc(C(=O)O)c(=O)c2cc(F)c(N3CCNC(C)C3)c(F)c21 (centres undefined) [LOMEFLOXACIN]
Not Active: IC50 [1] | Ki [1] | IC50 [2] | IC50 [3] | IC50 [4] | Ki [4] | IC50 ([5]; cho) | IC50 [6]

CN1CCCC(CN2c3ccccc3Sc3ccccc32)C1 (centres undefined) [MEPAZINE]
Not Active: IC50 [1] | Ki [1] | IC50 [2] | IC50 [3] | IC50 [4] | Ki [4] | IC50 ([5]; cho) | IC50 [6]

Cc1cccc(C)c1NC(=O)C1CCCCN1C (centres undefined) [MEPIVACAINE]
Not Active: IC50 [1] | Ki [1] | IC50 [2] | IC50 [3] | IC50 [4] | Ki [4] | IC50 ([5]; cho) | IC50 [6]

CN(C)C(=N)NC(=N)N [METFORMIN]
Not Active: IC50 [1] | Ki [1] | IC50 [2] | IC50 [3] | IC50 [4] | Ki [4] | IC50 ([5]; cho) | IC50 [6]

CC(C)(C)NCC(O)COc1cccc2c1CC(O)C(O)C2 (centres undefined) [NADOLOL]
Not Active: IC50 [1] | Ki [1] | IC50 [2] | IC50 [3] | IC50 [4] | Ki [4] | IC50 ([5]; cho) | IC50 [6]

C[C@]12CC[C@H]3[C@@H](CCC4=CC(=O)CC[C@@H]43)[C@@H]1CC[C@@H]2O [NANDROLONE]
Not Active: IC50 [1] | Ki [1] | IC50 [2] | IC50 [3] | IC50 [4] | Ki [4] | IC50 ([5]; cho) | IC50 [6]

C[C@@H]1C/C=C/C=C/C=C/C=C/[C@H](O[C@@H]2O[C@H](C)[C@@H](O)[C@H](N)[C@@H]2O)C[C@@H]2O[C@](O)(C[C@@H](O)C[C@H]3O[C@@H]3/C=C/C(=O)O1)C[C@H](O)[C@H]2C(=O)O [NATAMYCIN]
Not Active: IC50 [1] | Ki [1] | IC50 [2] | IC50 [3] | IC50 [4] | Ki [4] | IC50 ([5]; cho) | IC50 [6]

CN(C)C(=O)Oc1cccc([N+](C)(C)C)c1.[Br-] [NEOSTIGMINE BROMIDE]
Not Active: IC50 [1] | Ki [1] | IC50 [2] | IC50 [3] | IC50 [4] | Ki [4] | IC50 ([5]; cho) | IC50 [6]

NC(=O)c1cccnc1 [NIACINAMIDE]
Not Active: IC50 [1] | Ki [1] | IC50 [2] | IC50 [3] | IC50 [4] | Ki [4] | IC50 ([5]; cho) | IC50 [6]
